What was measured:
Format in all cases: in vivo
[1] = tested on: Brassica napus (spring rape); test: Greenhouse postemergence herbicidal effect on BRSNN
Text: (§1) Greenhouse Trial Methodology—Evaluation of Postemergence Herbicidal Effect
(§2) Seeds of the desired test plant species were planted in a 90:10% v/v (volume/volume) mixture of PRO-MIX® BX (Premier Tech Horticulture, Quakertown, Pa., USA) and PROFILE® GREENS GRADE™ (Profile Products LLC, Buffalo Grove, Ill., USA) planting mixture, which typically has a pH of 5.2 to 6.2 and an organic matter content of at least 50 percent, in plastic pots with a surface area of 103.2 square centimeters (cm^2). In some aspects or embodiments, to help ensure good germination and healthy plants, a fungicide treatment and/or other chemical or physical treatment was applied. The plants were grown for 7-36 days (d) in a greenhouse with an approximate 14-hour (h) photoperiod which was maintained at about 23° C. during the day and 22° C. during the night. Nutrients and water were added on a regular basis and supplemental lighting was provided with overhead metal halide 1000-Watt lamps as necessary. The plants were employed for testing when they reached the second or third true leaf stage.
(§3) Emulsifiable concentrates of each of each pyridine carboxylate herbicide (Compound A or Compound B) were prepared at 100 grams acid equivalent per liter (g ae/L). The emulsifiable concentrates also included a safener, cloquintocet mexyl, at 120 grams active ingredient per liter (g ai/L). An aliquot of each emulsifiable concentrate was placed in a 25 mL glass vial and diluted with an aqueous mixture of 1.25% (v/v) ACTIROB® B esterified rapeseed oil (Bayer Crop Science, Research Triangle Park, N.C., USA) or MSO® Concentrate with LECI-TECH® methylated soybean oil (Loveland Products, Loveland, Colo., USA) to obtain concentrated stock solutions at the highest application rate for each herbicide, based upon a 12 milliliter (mL) application volume at a rate of 187 liters per hectare (L/ha). The concentrated stock solutions were further diluted with an aqueous mixture of 1.25% v/v ACTIROB® B or MSO® Concentrate with LECI-TECH® to obtain stock solutions at reduced application rates for each herbicide. Spray solutions of the herbicide combinations (Compound A or Compound B plus PROTOX inhibitor herbicide) were prepared by adding weighed amounts or aliquots of the PROTOX inhibitor herbicides to the stock solutions of Compound A or Compound B to form 12-mL spray solutions in two-way combinations.
(§4) The spray solutions were applied to the plant material with an overhead Mandel track sprayer equipped with 8002E nozzles calibrated to deliver 187 L/ha over an application area of 0.503 square meters (m^2) at a spray height of 18 inches (43 centimeters (cm)) above the average plant canopy. Control plants were sprayed in the same manner with the solvent blank. All pyridine carboxylate herbicide (component a) application rates are given as “g ae/ha” and all PROTOX inhibitor herbicide (component b) application rates are given as “g ai/ha.”
(§5) The treated plants and control plants were placed in a greenhouse as described above and watered by sub-irrigation to prevent wash-off of the test compounds. After 20-22 d, the condition of the test plants as compared with that of the control plants was determined visually and scored on a scale of 0 to 100 percent where 0 corresponds to no injury and 100 corresponds to complete kill.

[2] = tested on: Kochia scoparia (kochia); test: Greenhouse postemergence herbicidal effect on KCHSC
Text: as §1, §2, §3, §4, §5

[3] = tested on: Digitaria sanguinalis (large crabgrass); test: Greenhouse postemergence herbicidal effect on DIGSA
Text: as §1, §2
(§6) Emulsifiable concentrates of each of each pyridine carboxylate herbicide (Compound A or Compound B) were prepared at 100 grams acid equivalent per liter (g ae/L). The emulsifiable concentrates also included a safener, cloquintocet mexyl, at 120 grams active ingredient per liter (g ai/L). […]
as §5

[4] = tested on: Cyperus esculentus (nutsedge); test: Greenhouse postemergence herbicidal effect on CYPES
Text: as §1, §2, §6, §5

[5] = tested on: Amaranthus retroflexus (pigweed); test: Greenhouse postemergence herbicidal effect on AMARE
Text: as §1, §2, §3, §4, §5

[6] = tested on: Triticum aestivum (spring wheat); test: Greenhouse postemergence phytotoxicity on crop TRZAS
Text: as §1, §2, §3, §4, §5

[7] = tested on: Polygonum convolvulus (wild buckwheat); test: Greenhouse postemergence herbicidal effect on POLCO
Text: as §1, §2, §3, §4, §5

[8] = tested on: Chenopodium album L. (common lambsquarters); test: Greenhouse postemergence herbicidal effect on CHEAL
Text: as §1, §2, §3, §4, §5

[9] = tested on: Cyanus segetum (cornflower); test: Greenhouse postemergence herbicidal effect on CENCY
Text: as §1, §2
as §3, with “combinations. […]” for “combinations.”
as §5

[10] = tested on: Matricaria inodora (scentless chamomile); test: Greenhouse postemergence herbicidal effect on MATIN
Text: as §1, §2
as §3, with “combinations. […]” for “combinations.”
as §5

[11] = tested on: Anthemis arvensis (corn chamomile); test: Greenhouse postemergence herbicidal effect on ANTAR
Text: as §1, §2
as §3, with “combinations. […]” for “combinations.”
as §5

[12] = tested on: Matricaria discoidea (pineapple weed); test: Greenhouse postemergence herbicidal effect on MATMT
Text: as §1, §2
as §3, with “combinations. […]” for “combinations.”
as §5

[13] = tested on: Veronica hederifolia (ivy-leaved speedwell); test: Greenhouse postemergence herbicidal effect on VERHE
Text: as §1, §2
as §3, with “combinations. […]” for “combinations.”
as §5

[14] = tested on: Triticum aestivum (winter wheat); test: Greenhouse postemergence phytotoxicity on crop TRZAW
Text: as §1, §2
as §3, with “combinations. […]” for “combinations.”
as §5

[15] = Compound A 7.5, Pyraclonil 0 g/ha
[16] = Compound A 7.5, Saflufenacil 0 g/ha
[17] = Compound A 10, Pyraclonil 0 g/ha
[18] = Compound A 10, Saflufenacil 0 g/ha
[19] = Compound A 7.5, Carfentrazone-ethyl 0 g/ha
[20] = Compound A 7.5, Oxyfluorfen 0 g/ha
[21] = Compound A 7.5, Pyraflufen-ethyl 0 g/ha
[22] = Compound A 10, Carfentrazone-ethyl 0 g/ha
[23] = Compound A 10, Oxyfluorfen 0 g/ha
[24] = Compound A 10, Pyraflufen-ethyl 0 g/ha
[25] = Compound A 15, Oxyfluorfen 0 g/ha

Structure (SMILES): N#CCOC(=O)c1nc(-c2ccc3cc[nH]c3c2F)c(F)c(N)c1Cl [Compound A, cyanomethyl 4-amino-3-chloro-5-fluoro-6-(7-fluoro-1H-indol-6-yl)pyridine-2-carboxylate]
- % visual injury, Obs ([1]; Compound A 7.5, Bifenox 0 g/ha): 23%
- % visual injury, Obs [1, 15]: 55%
- % visual injury, Obs [1, 16]: 65%
- % visual injury, Obs ([1]; Compound A 10, Bifenox 0 g/ha): 45%
- % visual injury, Obs [1, 17]: 60%
- % visual injury, Obs [1, 18]: 65%
- % visual injury, Obs ([2]; Compound A 7.5, Bifenox 0 g/ha): 63%
- % visual injury, Obs [2, 19]: 50%
- % visual injury, Obs [2, 20]: 63%
- % visual injury, Obs [2, 15]: 50%
- % visual injury, Obs [2, 21]: 70%
- % visual injury, Obs ([2]; Compound A 10, Bifenox 0 g/ha): 70%
- % visual injury, Obs [2, 22]: 58%
- % visual injury, Obs [2, 23]: 65%
- % visual injury, Obs [2, 17]: 58%
- % visual injury, Obs [2, 24]: 70%
- % visual injury, Obs [2, 25]: 63%
- % visual injury, Obs ([3]; Compound A 7.5, Bifenox 0 g/ha): 13%
- % visual injury, Obs ([3]; Compound A 10, Bifenox 0 g/ha): 25%
- % visual injury, Obs [4, 16]: 30%
- % visual injury, Obs [4, 18]: 8%
- % visual injury, Obs [5, 21]: 90%
- % visual injury, Obs [5, 16]: 88%
- % visual injury, Obs [5, 24]: 85%
- % visual injury, Obs [5, 18]: 88%
- % visual injury, Obs [6, 19]: 0%
- % visual injury, Obs [6, 20]: 0%
- % visual injury, Obs [6, 15]: 0%
- % visual injury, Obs [6, 21]: 0%
- % visual injury, Obs [6, 16]: 5%
- % visual injury, Obs [6, 22]: 0%
- % visual injury, Obs [6, 23]: 0%
- % visual injury, Obs [6, 17]: 0%
- % visual injury, Obs [6, 24]: 0%
- % visual injury, Obs [6, 18]: 3%
- % visual injury, Obs [6, 25]: 0%
- % visual injury, Obs [7, 19]: 70%
- % visual injury, Obs [7, 20]: 65%
- % visual injury, Obs [7, 15]: 70%
- % visual injury, Obs [7, 21]: 30%
- % visual injury, Obs [7, 22]: 78%
- % visual injury, Obs [7, 23]: 78%
- % visual injury, Obs [7, 17]: 78%
- % visual injury, Obs [7, 24]: 43%
- % visual injury, Obs [7, 25]: 85%
- % visual injury, Obs [8, 15]: 70%
- % visual injury, Obs [8, 21]: 75%
- % visual injury, Obs [8, 17]: 83%
- % visual injury, Obs [8, 24]: 80%
- % visual injury, Obs [9, 20]: 75%
- % visual injury, Obs [9, 23]: 78%
- % visual injury, Obs [9, 25]: 80%
- % visual injury, Obs [10, 20]: 55%
- % visual injury, Obs [10, 23]: 60%
- % visual injury, Obs [10, 25]: 83%
- % visual injury, Obs [11, 20]: 68%
- % visual injury, Obs [11, 23]: 70%
- % visual injury, Obs [11, 25]: 88%
- % visual injury, Obs [12, 20]: 20%
- % visual injury, Obs [12, 23]: 20%
- % visual injury, Obs [12, 25]: 63%
- % visual injury, Obs [13, 20]: 68%
- % visual injury, Obs [13, 23]: 73%
- % visual injury, Obs [13, 25]: 75%
- % visual injury, Obs [14, 20]: 0%
- % visual injury, Obs [14, 23]: 0%
- % visual injury, Obs [14, 25]: 0%

— patent US12465050B2, “Compositions comprising a pyridine carboxylate herbicide and protoporphyrinogen oxidase (protox) inhibitor herbicides” (priority 2018, dated 2025)
